According to ChEMBL document CHEMBL5620408, “Discovery of novel diarypyrimidine derivatives bearing six-membered non-aromatic heterocycles as potent HIV-1 NNRTIs with improved anti-resistance and drug-like profiles” (Eur J Med Chem, 2023):

Columns and labels:
[1] = Cytotoxicity against human MT4 cells assessed as reduction in cell viability by MTT assay; format: toxicity, cell-based
[2] = tested on: Human immunodeficiency virus 1; experiment: Antiviral activity against HIV1 harboring Y188L mutant infected in MT4 cells; format: functional, organism-based; conditions: Human immunodeficiency virus 1, MT4
[3] = tested on: Human immunodeficiency virus 1; experiment: Antiviral activity against HIV1 harboring L100I mutant infected in MT4 cells; format: functional, organism-based; conditions: Human immunodeficiency virus 1, MT4
[4] = molecular target: Human immunodeficiency virus type 1 reverse transcriptase (Human immunodeficiency virus 1, UniProt Q72547); experiment: Inhibition of wild type HIV-1 reverse transcriptase
[5] = tested on: Human immunodeficiency virus 1; experiment: Antiviral activity against HIV1 harboring F227L/V106A double mutant infected in MT4 cells; format: functional, organism-based; conditions: Human immunodeficiency virus 1, MT4
[6] = tested on: Human immunodeficiency virus 1; experiment: Antiviral activity against HIV1 harboring K103N mutant infected in MT4 cells; format: functional, organism-based; conditions: Human immunodeficiency virus 1, MT4
[7] = tested on: Human immunodeficiency virus 1; experiment: microbe, parasite or virus in culture; conditions: Human immunodeficiency virus 1, IIIB, MT4
Description: Antiviral activity against HIV1 IIIB infected in MT-4 cells assessed as viral induced cytopathic effect by MTT assay

MT4 = experiment: Cytotoxicity against human MT4 cells; format: toxicity, cell-based
[8] = tested on: Human immunodeficiency virus 1; experiment: Antiviral activity against HIV1 harboring Y181C mutant infected in MT4 cells; format: functional, organism-based; conditions: Human immunodeficiency virus 1, MT4
[9] = tested on: Human immunodeficiency virus 1; experiment: microbe, parasite or virus in culture; conditions: Human immunodeficiency virus 1, RES056, MT4
Description: Antiviral activity against HIV1 RES056 infected in MT-4 cells assessed as viral induced cytopathic effect by MTT assay

[10] = Selectivity index, ratio of CC50 for human MT4 cells to EC50 for antiviral activity against HIV IIIB
[11] = tested on: Human immunodeficiency virus 1; experiment: Antiviral activity against HIV1 NL4-3 infected in MT4 cells; format: functional, organism-based; conditions: Human immunodeficiency virus 1, NL4-3, MT4
[12] = tested on: Human immunodeficiency virus 1; experiment: Antiviral activity against HIV1 harboring E138K mutant infected in MT4 cells; format: functional, organism-based; conditions: Human immunodeficiency virus 1, MT4
[13] = Selectivity index, ratio of CC50 for human MT4 cells to EC50 for antiviral activity against HIV RES056

Structure (SMILES) | CC50 [1] [nM] | EC50 [2] [nM] | EC50 [3] [nM] | IC50 [4] [nM] | EC50 [5] [nM] | EC50 [6] [nM] | EC50 [7] [nM] | Activity (MT4) | EC50 [8] [nM] | EC50 [9] [nM] | selectivity ratio [10] | EC50 [11] [nM] | EC50 [12] [nM] | selectivity ratio [13]
O=C1Nc2ccc(Cl)cc2[C@@](C#CC2CC2)(C(F)(F)F)O1 [EFAVIRENZ] | > 6330 | 250 | 53 | – | – | – | – | – | – | – | – | – | – | –
CCS(=O)(=O)N1CCN(c2ccc(Nc3nccc(Oc4c(C)cc(C#N)cc4C)n3)cc2F)CC1 | > 245000 | > 245000 | 130 | 58 | 55 | 21 | 4 | Non-Toxic | 190 | > 245000 | > 55100 | 10.2 | 64 | –
Cc1cc(/C=C/C#N)cc(C)c1Oc1ccnc(Nc2ccc(N3CCN(S(=O)(=O)C(C)C)CC3)cc2)n1 | 1730 | – | – | 130 | – | – | 9 | Non-Toxic | – | > 1730 | 193 | 25.5 | – | < 1
Cc1ccnc2c1NC(=O)c1cccnc1N2C1CC1 [NEVIRAPINE] | > 15000 | > 15000 | – | – | > 15000 | 6040 | – | – | 7400 | > 15000 | – | – | – | –
Cc1cc(/C=C/C#N)cc(C)c1Oc1ccnc(Nc2ccc(N3CCN(S(=O)(=O)N(C)C)CC3)c(F)c2)n1 | 4590 | > 4590 | 58 | 78 | 68 | 9 | 5 | Non-Toxic | 120 | > 4590 | 993 | 5.67 | 32 | < 1
Cc1cc(/C=C/C#N)cc(C)c1Oc1ccnc(Nc2ccc(N3CC[S+]([O-])CC3)c(F)c2)n1 | 13300 | 5120 | 34 | 27 | 130 | 4 | 1 | – | 84 | 1300 | 9800 | – | 24 | 10
CCS(=O)(=O)N1CCC(c2ccc(Nc3nccc(Oc4c(C)cc(/C=C/C#N)cc4C)n3)cc2)CC1 | > 38600 | – | – | 71 | – | – | 5 | Non-Toxic | – | > 38600 | > 7360 | 5.7 | – | –
Cc1cc(/C=C/C#N)cc(C)c1Oc1ccnc(Nc2ccc(N3CCN(S(=O)(=O)N(C)C)CC3)cc2)n1 | 78100 | – | – | 140 | – | – | 8 | Non-Toxic | – | > 78100 | 10200 | 28.9 | – | < 1
Cc1cc(/C=C/C#N)cc(C)c1Oc1ccnc(Nc2ccc(N3CCOCC3)c(F)c2)n1 | 228000 | 4190 | 27 | 46 | 100 | 5 | 5 | – | 44 | 840 | 49600 | – | 25 | 272
Cc1cc(C#N)cc(C)c1Oc1ccnc(Nc2ccc(N3CCN(S(=O)(=O)C(C)C)CC3)c(F)c2)n1 | 192000 | – | – | 140 | – | – | 8 | Non-Toxic | – | > 192000 | 24500 | 24.6 | – | < 1
Cc1cc(/C=C/C#N)cc(C)c1Oc1ccnc(Nc2ccc(C3CCN(S(=O)(=O)C4CC4)CC3)cc2)n1 | > 37800 | > 37800 | 110 | 79 | 57 | 20 | 5 | Non-Toxic | 380 | > 37800 | > 7650 | 5.95 | 51 | –
Cc1cn([C@H]2C[C@H](N=[N+]=[N-])[C@@H](CO)O2)c(=O)[nH]c1=O [ZIDOVUDINE] | > 7480 | – | – | – | – | – | – | Non-Toxic | – | 37 | – | 15.3 | – | –
Cc1cc(/C=C/C#N)cc(C)c1Oc1ccnc(Nc2ccc(C3CCN(S(=O)(=O)N(C)C)CC3)cc2)n1 | 6270 | – | – | 100 | – | – | 9 | Non-Toxic | – | > 6270 | 686 | 24.8 | – | < 1
Cc1cc(C#N)cc(C)c1Oc1nc(Nc2ccc(C#N)cc2)nc(N)c1Br [ETRAVIRINE] | > 4590 | – | – | – | 25 | 1 | – | – | – | 76 | – | – | – | –
Cc1cc(/C=C/C#N)cc(C)c1Oc1ccnc(Nc2ccc(C3CCN(S(=O)(=O)C(C)C)CC3)cc2)n1 | 2380 | – | – | 130 | – | – | 8 | Non-Toxic | – | > 2380 | 298 | 11.9 | – | < 1
Cc1cc(/C=C/C#N)cc(C)c1Oc1ccnc(Nc2ccc(CN3CCN(S(C)(=O)=O)CC3)cc2)n1 | – | 1320 | 14 | 33 | 210 | 4 | – | Non-Toxic | – | – | – | 0.79 | 9 | –
Cc1cc(/C=C/C#N)cc(C)c1Oc1ccnc(Nc2ccc(N3CCN(S(=O)(=O)C4CC4)CC3)cc2)n1 | 216000 | – | – | 83 | – | – | 6 | Non-Toxic | – | > 216000 | 37300 | 6.12 | – | < 1
Cc1cc(C#N)cc(C)c1Oc1ccnc(Nc2ccc(N3CCN(S(C)(=O)=O)CC3)c(F)c2)n1 | 7750 | – | – | 43 | – | – | 6 | Non-Toxic | – | > 7750 | 1240 | 5.74 | – | < 1
Cc1cc(/C=C/C#N)cc(C)c1Nc1ccnc(Nc2ccc(C#N)cc2)n1 [RILPIVIRINE] | – | – | – | 430 | – | – | – | Non-Toxic | – | – | – | 0.6 | – | –
Cc1cc(C#N)cc(C)c1Oc1ccnc(Nc2ccc(N3CCN(S(=O)(=O)C4CC4)CC3)c(F)c2)n1 | > 239000 | – | – | 77 | – | – | 6 | Non-Toxic | – | > 239000 | > 40600 | 8.32 | – | –
CCS(=O)(=O)N1CCN(c2ccc(Nc3nccc(Oc4c(C)cc(/C=C/C#N)cc4C)n3)cc2)CC1 | > 38600 | > 38600 | 450 | 100 | 240 | 48 | 5 | Non-Toxic | 810 | > 38600 | > 7740 | 2.18 | 85 | –
